US8822467B2 (Ligand Pharmaceuticals Inc., priority 2009, dated 2014)

biological target: T1, human CRTH2 (Homo sapiens, UniProt Q9Y5Y4); experiment: [35S]GTPγS binding assay (SPA) on membranes from CHO-K1 cells stably expressing human CRTH2, stimulated with 60 nM DHK-PGD2; type: biochemical; conditions: membranes of CHO-K1 cells expressing human CRTH2; 60 nM DHK-PGD2; Table 1; read-out: CRTH2 hGTPγS IC50
T1 construct: expressed in transfected cells
T1 sequence (Q9Y5Y4 1-395): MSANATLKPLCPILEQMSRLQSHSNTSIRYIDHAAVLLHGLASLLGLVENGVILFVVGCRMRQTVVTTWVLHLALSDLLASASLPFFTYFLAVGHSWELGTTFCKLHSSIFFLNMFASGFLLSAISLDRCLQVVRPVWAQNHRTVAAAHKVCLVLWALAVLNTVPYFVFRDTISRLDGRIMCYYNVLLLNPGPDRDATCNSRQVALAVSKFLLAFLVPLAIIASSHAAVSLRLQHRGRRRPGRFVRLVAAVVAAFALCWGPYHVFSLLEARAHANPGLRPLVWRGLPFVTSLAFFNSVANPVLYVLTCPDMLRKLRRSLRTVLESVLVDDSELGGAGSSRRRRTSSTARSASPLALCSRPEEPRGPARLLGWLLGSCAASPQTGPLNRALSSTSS
Method: [^35S]GTPγS Binding Assay
SPA [^35S]G-TPγS binding was performed on membranes from CHO-K1 cells stably expressing human CRTH2. To a white, clear-bottomed 384-well plate, 4 μg membrane protein was incubated in the binding buffer (20 mM HEPES, pH 7.4, 10 mM MgCl2, 300 mM NaCl, 0.2% BSA) with 60 nM DHK-PGD2, 500 pM [^35S]GTPγS, 10 μM GDP, and 100 μg wheat germ agglutinin-coupled SPA beads (GE Healthcare) with and without increasing concentrations of compounds. The final assay volume was 40 μL and contained 1% DMSO. Samples were incubated for 2 h at ambient temperature. Plates were centrifuged 5 min at 1500 rpm. Plates were read after an additional 4 h using the Trilux 1450 Microbeta (PerkinElmer) with a 30 sec/well reading time.

IC50 [nM] | SMILES
0.6 | COc1cc(F)cc(-c2cc(CN(C)S(=O)(=O)c3ccc(F)c(Cl)c3)ccc2OCC(=O)O)c1 [Example 37, 2-(3-fluoro-5-methoxyphenyl)-4-((3-chloro-4-fluoro-N-methylphenylsulfonamido)methyl)phenoxyacetic acid]

same assay, conditions: potency class symbols; Table 2; read-out: CRTH2 hGTPγS IC50

IC50 [nM] | SMILES
100 to 1000 | CN(Cc1ccc(OCC(=O)O)c(-c2cccc(C(F)(F)F)c2)c1)S(=O)(=O)c1ccc(C#N)cc1 [Example 120, 2-(3-trifluoromethylphenyl)-4-((4-cyano-N-methylphenylsulfonamido)methyl)phenoxyacetic acid]
100 to 1000 | CN(Cc1ccc(OCC(=O)O)c(-c2cccc(C(F)(F)F)c2)c1)S(=O)(=O)c1cccc(Cl)c1 [Example 111, 2-(3-trifluoromethylphenyl)-4-((3-chloro-N-methylphenylsulfonamido)methyl)phenoxyacetic acid]
1000 to 10000 | CN(Cc1ccc(OCC(=O)O)c(-c2cnn(C)c2)c1)S(=O)(=O)c1ccc(F)cc1 [Example 186, 2-(1-methyl-1H-pyrazol-4-yl)-4-((4-fluoro-N-methylphenylsulfonamido)methyl)phenoxyacetic acid]
100 to 1000 | CN(Cc1ccc(OCC(=O)O)c(-c2cccc(C#N)c2)c1)S(=O)(=O)c1cccc(C(F)(F)F)c1 [Example 102, 2-(3-cyanophenyl)-4-((3-trifluoromethyl-N-methylphenylsulfonamido)methyl)phenoxyacetic acid]
< 100 | COc1ccc(S(=O)(=O)N(C)Cc2ccc(OCC(=O)O)c(-c3cc(F)cc(F)c3)c2)cc1F [Example 189, 2-(3,5-difluorophenyl)-4-((3-fluoro-4-methoxy-N-methylphenylsulfonamido)methyl)phenoxyacetic acid]
100 to 1000 | CNC(=O)c1cccc(-c2cc(CN(C)S(=O)(=O)c3ccc(F)cc3)ccc2OCC(=O)O)c1 [Example 135, 2-(3-N-methylaminocarbonylphenyl)-4-((4-fluoro-N-methylphenylsulfonamido)methyl)phenoxyacetic acid]
1000 to 10000 | COc1cccc(-c2cc(CN(C)S(=O)(=O)c3ccccc3)ccc2OCC(=O)O)c1 [Example 151, 2-(3-methoxyphenyl)-4-((-N-methylphenylsulfonamido)methyl)phenoxyacetic acid]
100 to 1000 | CN(Cc1ccc(OCC(=O)O)c(-c2cncc(C#N)c2)c1)S(=O)(=O)c1ccc(F)cc1 [Example 108, 2-(3-cyano-5-pyridinyl)-4-((4-fluoro-N-methylphenylsulfonamido)methyl)phenoxyacetic acid]
< 100 | COc1cc(F)cc(-c2cc(CN(C)S(=O)(=O)c3ccc(F)c(Cl)c3)ccc2OCC(=O)O)c1 [Example 37, 2-(3-fluoro-5-methoxyphenyl)-4-((3-chloro-4-fluoro-N-methylphenylsulfonamido)methyl)phenoxyacetic acid]
1000 to 10000 | CN(Cc1ccc(OCC(=O)O)c(-c2cnccn2)c1)S(=O)(=O)c1ccc(F)cc1 [Example 155, 2-(pyrazinyl)-4-((4-fluoro-N-methylphenylsulfonamido)methyl)phenoxyacetic acid]
< 100 | CN(Cc1ccc(OCC(=O)O)c(-c2cccc(S(C)(=O)=O)c2)c1)S(=O)(=O)c1cccc(F)c1 [Example 57, 2-(3-methylsulfonylphenyl)-4-((3-fluoro-N-methylphenylsulfonamido)methyl)phenoxyacetic acid]
100 to 1000 | CN(Cc1ccc(OCC(=O)O)c(-c2cccc(C(F)(F)F)c2)c1)S(=O)(=O)c1cccc(F)c1 [Example 126, 2-(3-trifluoromethylphenyl)-4-((3-fluoro-N-methylphenylsulfonamido)methyl)phenoxyacetic acid]
100 to 1000 | CN(Cc1ccc(OCC(=O)O)c(-c2cccc(F)c2)c1)S(=O)(=O)c1ccc(F)cc1 [Example 130, 2-(3-fluorophenyl)-4-((4-fluoro-N-methylphenylsulfonamido)methyl)phenoxyacetic acid]
100 to 1000 | COc1ccc(S(=O)(=O)N(C)Cc2ccc(OCC(=O)O)c(-c3cccc(C#N)c3)c2)cc1 [Example 104, 2-(3-cyanophenyl)-4-((4-methoxy-N-methylphenylsulfonamido)methyl)phenoxyacetic acid]
